This note sets out measurements from ChEMBL document CHEMBL3044787, “Carboxylesterase of the Rice Stem Borer, Chilo suppressalis WALKER (Lepidoptera: Pyralidae), Responsible for Fenitrothion Resistance as a Sequestering Protein” (J Pestic Sci, 1996).

A short description of data set [1]: Binding affinity to carboxylesterase in organophosphate-resistant Chilo suppressalis (rice stem borer) midgut soluble fraction assessed as inhibition of [14C]fenitroxon-sequestering activity at 10 umol/ml. As to conditions: probe [14C]fenitroxon; call rule not given here.
Data set [2] concerns Chilo suppressalis. Description: Insecticidal activity against organophosphate-resistant Chilo suppressalis (rice stem borer) fifth-instar larvae assessed as mortality after 24 hr. Type of data set: functional.
Data set [3] has as its system Chilo suppressalis. Description: Insecticidal activity against wild-type Chilo suppressalis (rice stem borer) fifth-instar larvae assessed as mortality after 24 hr. Type of data set: functional.
A further data set has as its target T1, Carboxylesterase (Loxostege sticticalis, UniProt B3TNN2).
T1 sequence (B3TNN2 whole entry): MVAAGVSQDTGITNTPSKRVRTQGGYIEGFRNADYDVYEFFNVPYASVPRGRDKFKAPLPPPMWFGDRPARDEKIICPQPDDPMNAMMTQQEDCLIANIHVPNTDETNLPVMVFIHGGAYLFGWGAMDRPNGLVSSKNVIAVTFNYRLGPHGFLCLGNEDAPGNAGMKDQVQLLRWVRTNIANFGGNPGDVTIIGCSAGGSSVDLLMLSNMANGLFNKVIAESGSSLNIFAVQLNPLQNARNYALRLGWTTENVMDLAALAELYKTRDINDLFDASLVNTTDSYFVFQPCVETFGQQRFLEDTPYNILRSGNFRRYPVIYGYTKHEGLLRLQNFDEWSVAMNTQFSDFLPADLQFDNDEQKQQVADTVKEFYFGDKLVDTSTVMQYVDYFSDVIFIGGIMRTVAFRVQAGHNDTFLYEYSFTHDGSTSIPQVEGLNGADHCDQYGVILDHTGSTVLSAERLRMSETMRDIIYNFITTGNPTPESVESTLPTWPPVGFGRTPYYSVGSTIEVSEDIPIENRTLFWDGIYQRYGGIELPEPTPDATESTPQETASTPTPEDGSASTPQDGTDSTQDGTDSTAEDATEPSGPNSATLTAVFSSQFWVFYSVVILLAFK
In words: Inhibition of carboxylesterase major isoform in organophosphate-resistant Chilo suppressalis (rice stem borer) midgut soluble fraction at 15 ng.

The subject of data set [4] is Malpighian tubule. In words: Drug uptake in Malpighian tubules of organophosphate-resistant Chilo suppressalis (rice stem borer) fifth-instar larvae assessed per mg protein by liquid scintillation counting. The format is ADME.
In data set [5] the test system is Haemolymph. Description: Drug uptake in haemolymph of wild-type Chilo suppressalis (rice stem borer) fifth-instar larvae assessed per mg protein by liquid scintillation counting. Type of data set: ADME.
Data set [6] can be described thus: Drug uptake in cuticle/muscle of wild-type Chilo suppressalis (rice stem borer) fifth-instar larvae assessed per mg protein by liquid scintillation counting. The format is ADME.
The subject of data set [7] is Fat body. In words: Drug uptake in fat body of wild-type Chilo suppressalis (rice stem borer) fifth-instar larvae assessed per mg protein by liquid scintillation counting. The format is ADME.
In data set [8] the test system is Midgut. Description: Drug uptake in midgut of wild-type Chilo suppressalis (rice stem borer) fifth-instar larvae assessed per mg protein by liquid scintillation counting. The format is ADME, tissue-based.
In data set [9] the test system is Haemolymph. In words: Drug uptake in haemolymph of organophosphate-resistant Chilo suppressalis (rice stem borer) fifth-instar larvae assessed per mg protein by liquid scintillation counting. The format is ADME.
A short description of data set [10]: Drug uptake in cuticle/muscle of organophosphate-resistant Chilo suppressalis (rice stem borer) fifth-instar larvae assessed per mg protein by liquid scintillation counting. Type of data set: ADME.
For data set [11], the system named is Fat body. In words: Drug uptake in fat body of organophosphate-resistant Chilo suppressalis (rice stem borer) fifth-instar larvae assessed per mg protein by liquid scintillation counting. The format is ADME.
Data set [12] has as its system Midgut. Description: Drug uptake in midgut of organophosphate-resistant Chilo suppressalis (rice stem borer) fifth-instar larvae assessed per mg protein by liquid scintillation counting. The format is ADME, tissue-based.
Data set [13] concerns Malpighian tubule. Description: Drug uptake in Malpighian tubules of wild-type Chilo suppressalis (rice stem borer) fifth-instar larvae assessed per mg protein by liquid scintillation counting. The format is ADME.

Take `CC(=O)Oc1cccc2ccccc12` [ALPHA-NAPHTHYLACETATE]: the inhibition at 10 umol/ml in [1] turned out to be 61.8%.

Consider `COP(=S)(OC)Oc1ccc([N+](=O)[O-])c(C)c1` [FENITROTHION], for which the LD50 in the data set on Chilo suppressalis [2] turned out to be 77.3 mg/kg; in the data set on Chilo suppressalis [3], 2.42 mg/kg.

For `COP(=O)(OC)Oc1ccc([N+](=O)[O-])c(C)c1` [FENITROXON], at Carboxylesterase, the “inhibition (INH)” value was “Active”. In addition, the Drug uptake came out at 2.1 nmol/h with Malpighian tubule [4]; 0.042 nmol/h in the data set with Haemolymph [5]; 0.044 nmol/h in data set [6]; 0.052 nmol/h in the data set on Fat body [7]; 0.22 nmol/h in the data set on Midgut [8]; 0.1 nmol/h in the data set on Haemolymph [9]. For the same molecule, the Drug uptake in [10] was 0.24 nmol/h; in the data set with Fat body [11], 0.35 nmol/h; with Midgut [12], 1.5 nmol/h; in the data set with Malpighian tubule [13], 0.24 nmol/h.
